We go through five compounds from patent US20130172273A1, “CYCLOTETRAPEPTIDES WITH PRO-ANGIOGENIC PROPERTIES” (GENETADI BIOTECH, S.L., priority 2010, published 2013).

The test system of test [1] is 17 angiogenic and adhesion-related genes in HUVEC cells. Description: Gene regulation assay (whole human gene-expression microarray). In kind it is cell-based. The following applies: 10^−5M, 48 hours, FIG. 2. On the procedure: HUVEC cells were maintained in CS—C Complete Medium, grown at 50 percent of confluency and then treated with 1.00E-05 M final concentration of the peptide compounds during 48 hours.
Total RNA was extracted from untreated control or RGD-compounds treated cells using TRIzol (Invitrogen) according to standard protocol. RNA was further purified with RNeasy Mini Kit (Qiagen) and the concentration and quality was assessed by NanoDrop spectrophotometer and Agilent 2100 Bioanalyzer, respectively. Only RNA Samples with a RIN number between […]were used in the microarray assays.
In order to study the intracellular effect of all RGD-binding compounds, a cell-culture whole gene-expression assay was performed. HUVEC cells were treated separately with a 10^−5M concentration of the test compounds during 48 hours. The simultaneous analysis of all human gene-expression by microarray let us identify which human gene(s) are induced, inhibited or un-affected after the test compounds were bound to the receptors of the cells.
Whole human gene expression microarray analysis was performed using Agilent Technologies (Santa Clara, Calif.). This platform comprises a two-color design with two RNA samples labelled with either Cy3 or Cy5 and hybridized to the same 44K Agilent microarray. Each array contains about 41,000 unique noncontrol 60-mer probes. RNAs from untreated and peptide treated-HUVEC cells were two-color labelled and hybridized to randomly chosen arrays a total of four times. A dye swap was performed for each sample on a different slide to remove any bias from the labelling dyes.
For each sample, 800 ng total RNA was reverse transcribed, linear amplified, and labelled with either Cy3 or Cy5 using Agilent's Low RNA Input Linear Amplification Kit PLUS, according to manufacturer's instructions. After labelling, samples were measured on a Nanodrop microarray module for labelling efficiency and quantification. Samples were then hybridized on Agilent 4×44K whole human genome GE arrays at 65° C. for 17 h. After washing in GE washing buffer, the slide was scanned with Agilent Microarray Scanner. Feature extraction software (Version 9.5.3) was used to convert the image into gene expression data. Data were normalized by the Linear Lowess method. Genes that were 1.5-fold differentially expressed on 3 of 4 arrays were scored as significant. Furthermore, only genes with a p-value≦0.05 based on a Student's t-test were selected. Mean fold change is mean of 4 arrays. Angiogenic-related genes were classified according to Gene Ontology.

The test system of test [2] is αvβ3 integrin over-expressed human umbilical vein endothelial cells (HUVEC). Kind of test: Endothelial cell adhesion assay (adhesion inhibition on a vitronectin surface). In kind it is cell-based. The note with it: HUVEC on vitronectin-coated plate, 1 h at 37° C.; FIG. 1. Here is the method:
Human umbilical endothelial cell (HUVEC) was purchased from Cambrex BioScience (USA). Cells were grown on the 0.5% gelatin coated plate in CS—C Complete Medium (Sigma) and were used for experiments after three passages. DLD-1, human colon cancer cell line was purchased from LGC/ATCC (Cat. Number CCL-221), and maintained in RPMI 1640 (Sigma) supplemented with 10% FBS (Sigma). Human vitronectin was from Sigma. Peptides to be assayed were dissolved in double-distilled water at a concentration of 10 mg/ml and stored in the dark at −80°.
HUVEC cells were grown to subconfluent state and then harvested by 0.025% trypsin/EDTA (Sigma) in one minute. Cells were preincubated with various concentrations of peptides on ice for 15 min in CS—C Medium. Same volume of vehicle was added to cells as a control. Peptide-treated cells (5×10^4 cells/100 μl/well) were plated onto a 96-well microplate which was precoated with vitronectin ([…] in PBS), and incubated for 1 h at 37° C., 5% CO^2/95% air to allow cell attachment. Cells were washed gently with PBS for three times to remove detached cells. Number of adherent cells was measured by Fluorescent Cell counting Kit (FCCK) at 535 nm (excitation at 485 nm) using a fluorescent plate reader (Bioscan). […]
Data are expressed as the means±standard error of mean (SEM). Statistical differences among treatment groups were assessed by analysis of variance (ANOVA). […]

The target in test [3] is αvβ3 integrin (Homo sapiens, UniProt P05106+P06756). The following applies: J. Med. Chem. 2010, vol. 53(1), pp. 106-118; cited from earlier work.
Chain of αvβ3 integrin (P06756 31-889 limits assumed): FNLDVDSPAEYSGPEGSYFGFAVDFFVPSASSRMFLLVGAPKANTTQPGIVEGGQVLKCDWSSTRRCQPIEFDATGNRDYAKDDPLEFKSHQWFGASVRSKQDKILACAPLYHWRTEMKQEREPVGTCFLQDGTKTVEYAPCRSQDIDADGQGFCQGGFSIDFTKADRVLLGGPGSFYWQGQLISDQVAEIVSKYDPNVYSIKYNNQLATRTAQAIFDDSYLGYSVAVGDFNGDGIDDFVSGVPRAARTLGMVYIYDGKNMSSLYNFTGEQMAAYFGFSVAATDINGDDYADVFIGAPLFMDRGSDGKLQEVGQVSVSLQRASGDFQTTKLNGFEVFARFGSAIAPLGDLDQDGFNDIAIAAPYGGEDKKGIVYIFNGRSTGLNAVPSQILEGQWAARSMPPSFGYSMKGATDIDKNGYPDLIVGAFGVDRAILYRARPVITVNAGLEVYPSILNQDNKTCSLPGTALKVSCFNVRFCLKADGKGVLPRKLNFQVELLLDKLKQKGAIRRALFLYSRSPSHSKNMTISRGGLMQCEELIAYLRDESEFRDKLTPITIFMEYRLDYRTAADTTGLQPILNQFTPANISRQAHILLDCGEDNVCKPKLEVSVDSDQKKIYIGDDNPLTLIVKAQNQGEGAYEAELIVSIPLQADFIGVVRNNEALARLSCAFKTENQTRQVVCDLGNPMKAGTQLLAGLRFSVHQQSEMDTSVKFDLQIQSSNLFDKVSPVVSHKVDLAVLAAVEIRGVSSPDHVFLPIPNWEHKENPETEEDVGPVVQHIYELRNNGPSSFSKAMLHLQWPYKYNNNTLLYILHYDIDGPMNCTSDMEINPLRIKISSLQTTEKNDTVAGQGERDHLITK
Chain of αvβ3 integrin (P06756 891-1048 limits assumed): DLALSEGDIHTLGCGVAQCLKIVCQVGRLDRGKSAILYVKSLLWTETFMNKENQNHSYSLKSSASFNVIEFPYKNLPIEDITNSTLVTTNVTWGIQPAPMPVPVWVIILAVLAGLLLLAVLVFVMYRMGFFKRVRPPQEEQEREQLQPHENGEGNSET
Chain of αvβ3 integrin (P05106 27-788): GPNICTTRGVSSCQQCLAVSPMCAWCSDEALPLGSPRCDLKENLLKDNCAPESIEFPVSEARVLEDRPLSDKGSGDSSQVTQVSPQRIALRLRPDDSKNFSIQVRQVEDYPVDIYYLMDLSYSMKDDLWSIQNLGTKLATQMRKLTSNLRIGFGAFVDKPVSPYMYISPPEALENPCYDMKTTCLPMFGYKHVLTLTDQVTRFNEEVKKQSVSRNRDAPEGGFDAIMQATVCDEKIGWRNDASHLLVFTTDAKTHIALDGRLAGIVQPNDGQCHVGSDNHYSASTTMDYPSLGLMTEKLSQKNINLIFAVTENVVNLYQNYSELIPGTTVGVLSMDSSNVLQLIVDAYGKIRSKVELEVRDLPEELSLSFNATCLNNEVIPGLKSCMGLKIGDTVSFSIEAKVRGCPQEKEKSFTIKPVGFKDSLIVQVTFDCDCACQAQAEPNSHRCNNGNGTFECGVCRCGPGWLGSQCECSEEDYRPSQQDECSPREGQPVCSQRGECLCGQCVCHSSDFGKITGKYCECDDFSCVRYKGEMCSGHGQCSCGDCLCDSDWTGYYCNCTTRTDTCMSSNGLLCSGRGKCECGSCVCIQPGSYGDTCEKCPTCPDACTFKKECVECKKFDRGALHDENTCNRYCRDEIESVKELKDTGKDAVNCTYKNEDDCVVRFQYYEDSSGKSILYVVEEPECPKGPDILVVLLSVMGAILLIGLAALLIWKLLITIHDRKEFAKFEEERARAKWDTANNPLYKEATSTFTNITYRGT
Where [4] appears, read: of 17 angiogenic and adhesion-related genes.

As for `N=C(N)NCCC[C@@H]1NC(=O)CN2C(=O)C(NC(=O)[C@H](CC(=O)O)NC(=O)CNC1=O)[C@H]2[C@H](O)CO` (stereo partly shown) [compound 1], in test [1] (of 17 genes), the “pattern of gene-expression conserved relative to cilengitide” value is 15/17. With “cyclo-[Asp-(beta-Lactam)-Arg [Example 24]”, in test [2], the “adhesion inhibition (% of cell adhesion vs. concentration)” value is “comparable adhesion inhibition as cilengitide and the RGD-cyclopentapeptides”. For the same compound, the “pattern of gene-expression almost opposite (activation vs inhibition) compared with cilengitide” value in test [1] (of 17 genes) is 15 of 17. Regarding c[(R)-βPheψ(NHCO)Aspψ(NHCO)Gly-Arg], in test [3], the “inhibiting the αvβ3 integrin-mediated cell adhesion” value is reported as “good activity”. For `CC(C)[C@H]1C(=O)N[C@@H](CCCN=C(N)N)C(=O)NCC(=O)N[C@@H](CC(=O)O)C(=O)N[C@H](Cc2ccccc2)C(=O)N1C` [cilengitide, cyclo(Arg-Gly-Asp-(D)Phe-N(Me)Val)], in test [1] (setting [4]), the “genes activated after treatment” value stood at 10 genes and the “genes blocked after treatment” value is given as 7 genes. Regarding `CC1(C)C(=O)N[C@@H](CCCNC(=N)N)C(=O)NCC(=O)N[C@@H](CC(=O)O)C(=O)NC2(Cc3ccccc3)CN1C2=O` (stereo partly shown) [compound 2], in test [1] (of 17 genes), the “pattern of gene-expression conserved relative to cilengitide” value is listed as 14 of 17.
